Source: ChEMBL document CHEMBL1126439, “Synthesis, biochemical activity and behavioral effects of a series of 1,4,5,6-tetrahydropyrimidines as novel ligands for M1 receptors” (Bioorg Med Chem Lett, 1992)

What was measured:
[1] = species: Rattus norvegicus; assay: Ability to stimulate PI (phospho inositol) metabolism in rat cerebral cortex at 100 uM concentration; assay type: functional
[2] = target: Muscarinic acetylcholine receptor
Description: Inhibition of [3H](R)-QNB binding to muscarinic receptor in rat brain membranes

[3] = species: Rattus norvegicus; assay: Compound was evaluated for its ability to stimulate PI (phospho inositol) metabolism in the rat hippocampal slices; assay type: functional, Hippocampus
[4] = species: Rattus norvegicus; assay: Compound was evaluated for its ability to stimulate PI (phospho inositol) metabolism in the rat hippocampal slices, the 50% effective concentration was reported; assay type: functional; settings: Hippocampus
[5] = species: Rattus norvegicus; assay: cells; settings: Hippocampus
Description: Inhibition of PI (phospho inositol) response in rat hippocampus by the selective antagonist AF-DX 116 in the presence of 50 uM concentration of the compound

[6] = species: Rattus norvegicus; assay: cells; settings: Hippocampus; remark: listed apart in the source
Description: Inhibition of PI (phospho inositol) response in rat hippocampus by the selective antagonist pirenzepine in the presence of 50 uM concentration of the compound

[7] = species: Rattus norvegicus; assay: tissue or blood; settings: Hippocampus
Description: Effective concentration to stimulate PI (phospho inositol) metabolism in the rat hippocampal slices

Structure (SMILES) | Activity [1] | Stimulation [3] | also measured
C[N+](C)(C)CCOC(N)=O.[Cl-] [CARBACHOL] | 580 | – | –
CCCOC(=O)C1CN=CNC1.Cl (centres undefined) | 7.1 | – | –
C#CCOC(=O)C1CN=CNC1.Cl (centres undefined) | 230 | – | –
Cl.O=C(OCc1ccccc1)C1CN=CNC1 (centres undefined) | 3.5 | – | IC50 [2]: 2600 nM
CCOC(=O)C1CN=CNC1.Cl (centres undefined) | 150 | – | –
CC(=O)OC1CN=CNC1.Cl (centres undefined) | 45 | 70% | IC50 [2]: 32000 nM
COC(=O)C1CN=CNC1.Cl (centres undefined) | 130 | 240% | EC50 [4]: 55000 nM; IC50 [5]: 750 nM; IC50 [6]: 44 nM
CC(=O)OC1CN2CCC1CC2 (centres undefined) [ACECLIDINE] | – | 300% | IC50 [5]: 280 nM; IC50 [6]: 120 nM; EC50 [7]: 21000 nM
CC(C)OC(=O)C1CN=CNC1.Cl (centres undefined) | 7.2 | – | –
